Test results reported in publication PMC8528301 (PLoS ONE, 2021).
Read-outs that look alike come from different tables or passages of the source. Blank lines part the entries; values can stand above or below the molecule they belong to.

Key:
[1] = no reference given, cited from earlier work
[2] = serum
Source text: (§1) To generate VD3 deficient and sufficient mice, day 4–5 estrus (E5-E6) pregnant C57BL/6J female mice from Jackson Laboratories (Bar Harbor, ME) were kept on the VD3 deficient (Harlan catalog no. 5A69, 0 IU of vitamin D) and VD3 sufficient diets, (catalog. No. 5BV8, 3.3 IU of vitamin D) to develop vitamin D deficient and vitamin D sufficient mice, respectively. Pregnant dams were maintained on these diets throughout pregnancy, and after parturition, and pups were maintained on the corresponding diets after weaning as described in [16]. The pups were age matched and both male and female, VD3 deficient and VD3 sufficient mice were used for Cyp3a expression, pharmacokinetic and efficacy studies.
To observe the effect of vitamin D status on hCYP3A4 expression, cryopreserved hCYP3A4 transgenic (tg) mouse sperm was used to re-derive the humanized CYP3A4 transgenic mouse model. Human CYP3A4 transgenic mice were obtained from the laboratory of Dr. Frank Gonzalez (Laboratory of Metabolism, Center for Cancer Research, National Cancer Institute, National Institutes of Health, Bethesda). To generate hCYP3A4-Tg VD3 deficient and sufficient mice, E5-E6 hCYP3A4-Tg pregnant female mice were kept on VD3 deficient and VD3 sufficient diets throughout pregnancy and after parturition as described for C57BL/6J mice above. Pups were maintained on the corresponding diets after weaning and were euthanized at 12 weeks of age for tissue collection, blood was collected by cardiac puncture and serum was isolated and stored at -80°C. Tissues such as intestine (duodenum), liver and kidney were harvested and stored in RNA later at -20°C.
Serum samples from all animals in this manuscript were collected but only a few samples were randomly selected across studies and sent to the Veterinary Diagnostic Laboratory at Michigan State University (Lansing, MI) for serum 25-(OH) VD3 analysis.

[3] = system: duodenal mCyp3a and drug efflux transporter mRNA expression; assay: qPCR of Cyp3a and efflux transporter mRNA in duodenum of VD3 sufficient vs deficient C57BL/6 mice; format: in vivo, mouse; details: n=3
Source text: as §1
Mouse intestine (duodenum), liver and kidney tissues stored in RNA later at -20°C were used for RNA isolation. Trizol (Ambion Life technologies, CA, USA or Thermo Fisher scientific, CA, USA) was used to extract RNA according to the manufacturers protocol. Sterile Omni tips (OMNI International, GA, USA) were used to homogenize the tissue using Omni tissue homogenizer. 500 ng of RNA was used to generate cDNA using the Thermoscript™ RT-PCR system (Invitrogen ThermoFisher, CA, USA). The cDNA was diluted to a total volume of 70 μL. Primers used for the amplification: […]
Real-time PCR quantification was performed using SYBR GreenER™ qPCR supermix for ABI PRISM Instrument (Life Technologies, Grand Island, NY) according to manufacturer’s instructions. Samples were run at the following conditions: 95°C for 15 min, 40 cycles of 92°C for 30 sec, 60°C for 30 sec, 68°C for 1 min followed by a dissociation step. The relative amounts of mRNAs in each sample were normalized to Villin or Gapdh for intestine samples or Gapdh values for liver and kidney samples to control for quality of the mRNA. Comparative CT (ΔΔCt) method was used to determine quantitative PCR values.
Fig 1 Cyp and transporter gene expression in duodenum of VD3 sufficient and deficient mice. Influence of VD3 deficiency on duodenal mCyp3a11, mCyp3a13, mCyp3a44 (A,B) and drug efflux transporter mRNA expression (C,D) in 12 wk old C57BL/6 mice (A, C)) and hCYP3A4-tg mice (B,D) (male, n = 3 and female, n = 3/strain). Data are expressed as mean (bars) + SD (error bars) fold change in mRNA expression in deficient mice relative to each mRNAs expression in sufficient mice set as one. Villin was used as an internal control to normalize the target gene expression data. Mann-Whitney nonparametric test on GraphPad was used to determine significance between the groups (**p<0.01, *p<0.05).

[4] = female C57BL/6, VD3 deficient vs sufficient = 1, Villin
[5] = male C57BL/6, VD3 deficient vs sufficient = 1, Villin

SMILES: C=C1/C(=C\C=C2/CCC[C@]3(C)[C@@H]([C@H](C)CCCC(C)(C)O)CC[C@@H]23)C[C@@H](O)C[C@@H]1O [1,25 (OH)2 VD3]
half-life ([1]; serum 1,25 (OH)2 VD3, biologically short lived): ~ 15 hours

Mean (25-(OH) VD3 ([2]; C57BL/6, VD3 Deficient, n=6): 12 nmol/L
Mean (25-(OH) VD3 ([2]; C57BL/6, VD3 Sufficient, n=2): 324.50 nmol/L
Mean (25-(OH) VD3 ([2]; hCYP3A4-tg, VD3 Deficient, n=4): 14.75 nmol/L
Mean (25-(OH) VD3 ([2]; hCYP3A4-tg, VD3 Sufficient, n=4): 219 nmol/L
SMILES: C=C1CC[C@H](O)C/C1=C/C=C1\CCC[C@]2(C)[C@@H]([C@H](C)CCCC(C)(C)O)CC[C@@H]12 [25-(OH) VD3]
half-life ([1]; serum 25(OH)VD3): 15 days

SMILES: C=C1CC[C@H](O)C/C1=C/C=C1\CCC[C@]2(C)[C@@H]([C@H](C)CCCC(C)C)CC[C@@H]12 [VD3, Vitamin D3]
avg fold chnge Cyp3a11 mRNA [3, 4]: 0.2614 fold
avg fold chnge cyp3a13 mRNA [3, 4]: 0.2206 fold
avg fold chnge cyp3a25 mRNA [3, 4]: 1.068 fold
avg fold chnge cyp3a44 mRNA [3, 4]: 0.139 fold
avg fold change Cyp3a11 mRNA ([3]; male C57BL/6, VD3 deficient (GCD) vs VD3 sufficient = 1, normalised to Villin): 0.299 fold
avg fold change Cyp3a13 mRNA [3, 5]: 0.1229 fold
avg fold change Cyp3a25 mRNA [3, 5]: 0.2366 fold
avg fold change Cyp3a41 mRNA [3, 5]: 0.2185 fold
avg fold change Cyp3a44 mRNA [3, 5]: 0.1467 fold
avg fold change bcrp mRNA [3, 5]: 0.5071 fold
avg fold change mPXR mRNA [3, 5]: 0.5697 fold
avg fold change mVDR mRNA [3, 5]: 0.3209 fold
avg fold change mdr1a mRNA [3, 5]: 0.5457 fold
